This assay deals with T1, AT1 receptor (Rattus norvegicus, UniProt P25095).
T1 construct: rat liver membranes; from tissue; host or cells: rat liver membranes
T1 sequence (P25095 1-359): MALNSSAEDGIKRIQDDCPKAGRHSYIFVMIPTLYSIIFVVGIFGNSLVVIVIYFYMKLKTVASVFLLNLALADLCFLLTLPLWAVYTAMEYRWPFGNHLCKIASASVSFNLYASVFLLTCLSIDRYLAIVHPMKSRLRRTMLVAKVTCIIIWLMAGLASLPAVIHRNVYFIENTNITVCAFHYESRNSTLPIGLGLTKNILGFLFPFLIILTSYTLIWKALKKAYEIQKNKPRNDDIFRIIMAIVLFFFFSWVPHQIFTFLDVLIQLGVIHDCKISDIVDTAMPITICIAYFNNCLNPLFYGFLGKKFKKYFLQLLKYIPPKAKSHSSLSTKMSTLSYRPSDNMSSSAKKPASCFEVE
As to the kind of experiment: [^3 H]angiotensin II binding to rat liver membranes (AT1 test). Conditions: inhibition of [^3 H]angiotensin II binding. Here is the method: The compounds of Formula I or Ia are antagonists of angiotensin II. Dudley, D. T., et al, Molecular Pharmacology 1990;38:370-377 reported the existence of 2 subclasses of angiotensin II binding sites in rabbit adrenal gland and uterus and in the rat liver which differ in their tissue distribution and affinity for various peptide and nonpeptide ligands. Thus, the compounds of Formula I or Ia were tested for their ability to inhibit [^3 H]angiotensin II binding to rat liver membranes (AT1 test) according to the methods described by Dudley, D. T., et al, Molecular Pharmacology 1990;38:370-7. […] It is well established that compounds which antagonize the effect of angiotensin II at the AT1 receptor have value for treatment of hypertension and heart failure.

A word on the IC50: it is the concentration at which inhibition is half-maximal. A low value points to higher potency.

Counter-ions that a name gives are not always drawn.

As for `CCCCc1ncc(/C=C2\C(=O)NC(=O)N2CCC(C)C)n1Cc1ccc(C(=O)O)cc1` [Example 2a], the IC50 stood at 9.4 nM. This lies in the single-digit nanomolar range.

The compound `CCCCc1ncc(/C=C2/C(=O)NC(=O)N2CCC(C)C)n1Cc1ccc(C(=O)O)cc1` [Example 2b] registered an IC50 of 8.8 nM. The IC50 values of the last two compounds are within 1.5-fold of each other.

Take `CCCCc1ncc(/C=C2\C(=O)NC(=O)N2C)n1Cc1ccc(C(=O)O)cc1` [Example 3a, (E)-4-[[2-Butyl-5-[(2,5-dioxo-3-methyl-4-imidazolidinylidene)methyl]-1H-imidazol-1-yl]methyl]benzoic acid]: the IC50 was 172 nM.

For the compound `CCCCc1ncc(/C=C2/C(=O)NC(=O)N2C)n1Cc1ccc(C(=O)O)cc1` [Example 3b, (Z)-4-[[2-Butyl-5-[(2,5-dioxo-3-methyl-4-imidazolidinylidene)methyl]-1H-imidazol-1-yl]methyl]benzoic acid], the IC50 stood at 83.8 nM.

Compound `CCCCc1ncc(/C=C2/C(=O)NC(=O)N2Cc2ccccc2)n1Cc1ccc(C(=O)O)cc1` [Example 4b] had an IC50 of 4.17 nM.

In turn, `CCCCc1ncc(/C=C2\C(=O)NC(=O)N2c2ccccc2)n1Cc1ccc(C(=O)O)cc1` [Example 5, (E)-4-[[2-Butyl-5-[(2,5-dioxo-3-phenyl-4-imidazol-imidazolidinylidene)methyl]-1H-imidazole-1-yl]methyl]benzoic acid] gave an IC50 of 643 nM.

In turn, `CCCCc1ncc(/C=C2\C(=O)NC(=O)N2Cc2cccs2)n1Cc1ccc(C(=O)O)cc1` [Example 6a] registered an IC50 of 2.97 nM.

The compound `CCCCc1ncc(/C=C2/C(=O)NC(=O)N2Cc2cccs2)n1Cc1ccc(C(=O)O)cc1` [Example 6b] had an IC50 of 1.43 nM.

As to `CCCCc1ncc(/C=C2\C(=O)NC(=O)N2CCCC)n1Cc1ccc(C(=O)OC)cc1` [Example 15a, (E)-4-[[2-Butyl-5-[(3-butyl-2,5-dioxo-4-imidazolidinylidene)methyl]-1H-imidazole-1-yl]methyl]benzoic acid, methyl ester], the IC50 was determined as 10.9 nM.

In the case of `CCCCc1ncc(/C=C2/C(=O)NC(=O)N2CCCC)n1Cc1ccc(C(=O)OC)cc1` [Example 15b, (Z)-4-[[2-Butyl-5-[(3-butyl-2,5-dioxo-4-imidazolidinylidene)methyl]-1H-imidazole-1-yl]methyl]benzoic acid, methyl ester], the IC50 amounted to 10.3 nM.

Take `CCCCc1ncc(/C=C2\C(=O)NC(=O)N2Cc2cccs2)n1Cc1ccc(C(=O)OC)cc1` [Example 16a, (e)-4-[]2-Butyl-5-[[2,5-dioxo-3-((2-thienyl)methyl)-4-imidazolidinylidene[methyl]-1H-imidazole-1-yl]methyl]benzoic acid, methyl ester]: the IC50 came to 5.45 nM.

Compound `CCCCc1ncc(/C=C2/C(=O)NC(=O)N2Cc2cccs2)n1Cc1ccc(C(=O)OC)cc1` [Example 16b, (Z)-4-[[2-Butyl-5-[[2,5-dioxo-3-((2-thienyl)methyl)-4-imidazolidinylidene]methyl]-1H-imidazole-1-yl]methyl]benzoic acid, methyl ester] returned an IC50 of 6.92 nM.

Take `CCCCc1ncc(/C=C2\C(=O)NC(=O)N2CCCCO)n1Cc1ccc(C(=O)OC)cc1` [Example 17a]: the IC50 stood at 98.3 nM.

On to `CCCCc1ncc(/C=C2/C(=O)NC(=O)N2CCCCO)n1Cc1ccc(C(=O)OC)cc1` [Example 17b, (Z)-4-[[2-Butyl-5-[[2,5-dioxo-3-(4-hydroxybutyl)-4-imidazolidinylidene]methyl]-1-H-imidazole-1-yl]methyl]benzoic acid, methyl ester], for which the IC50 came to 49.5 nM.

As for `CCCCN1C(=O)N(C)C(=O)/C1=C\c1cnc(CCC)n1Cc1ccc(C(=O)OC)cc1` [Example 18], the IC50 was found to be 21 nM.

Compound `CCCCc1ncc(/C=C2\C(=O)NC(=O)N2Cc2ccc(Cl)cc2)n1Cc1ccc(C(=O)O)cc1` [Example 20a, E-4-[[2-butyl-5-[[3-[(4-chlorophenyl)methyl]-2,5-dioxo-4-imidazolidinylidene]methyl]-1H-imidazol-1-yl]methyl]benzoic acid] yielded an IC50 of 3.36 nM.

The compound `CCCCc1ncc(/C=C2/C(=O)NC(=O)N2Cc2ccc(Cl)cc2)n1Cc1ccc(C(=O)O)cc1` [Example 20b, Z-4-[[2-butyl-5-[[3-[(4-chlorophenyl)methyl]-2,5-dioxo-4-imidazolidinylidene]methyl]-1H-imidazol-1-yl]methyl]benzoic acid] displayed an IC50 of 2.47 nM.

For the compound `CCCCc1ncc(/C=C2\C(=O)NC(=O)N2Cc2ccc(OC)c(OC)c2)n1Cc1ccc(C(=O)O)cc1` [Example 21a], the IC50 came out at 111 nM.

As to `CCCCc1ncc(/C=C2/C(=O)NC(=O)N2Cc2ccc(OC)c(OC)c2)n1Cc1ccc(C(=O)O)cc1` [Example 21b], the concentration for half-maximal inhibition (IC50) is 89.3 nM.

In the case of `CCCCc1ncc(/C=C2/C(=O)N(CCCC)C(=O)N2CCCC)n1Cc1ccc(C(=O)OC)cc1` [Example 22, Methyl Z-4-[[-2-butyl-5-[(1,3-dibutyl-2,5-dioxo-4-imidazolidinylidene)methyl]-1H -imidazol-1-yl]methyl]benzoate monohydrochloride], the IC50 came to 1.67 nM.

Compound `CCCCc1ncc(/C=C2/C(=O)N(CCCC)C(=O)N2Cc2cccs2)n1Cc1ccc(C(=O)OC)cc1` [Example 23, Methyl Z-4-[[2-butyl-5-[[1-butyl-2,5-dioxo-3-(2-thienylmethyl)-4-imidazolidinylidene]methyl]-1H-imidazol-1-yl]methyl]benzoate monohydrochloride] yielded a concentration for half-maximal inhibition (IC50) of 3.39 nM.

`CCCCc1ncc(/C=C2\C(=O)N(CCCC)C(=O)N2Cc2cccs2)n1Cc1ccc(C(=O)OC)cc1` [Example 24, Methyl E-4-[[2-butyl-5-[[1-butyl-2,5-dioxo-3-(2-thienylmethyl)-4-imidazolidinylidene]methyl]-1H-imidazol-1-yl]methyl]benzoate monohydrochloride] showed an IC50 of 10.3 nM. This IC50 is about 3-fold higher than that of the compound before.

Compound `CCCCc1ncc(/C=C2/C(=O)N(CCCC)C(=O)N2Cc2cccs2)n1Cc1ccc(C(=O)O)cc1` [Example 25] displayed an IC50 of 6.39 nM.

As for `CCCCc1ncc(/C=C2\C(=O)NC(=O)N2Cc2cccs2)n1Cc1ccc(C2(C(=O)O)CCCC2)cc1` [Example 26a, E-1-[4-[[2-butyl-5-[[2,5-dioxo-3-(2-thienylmethyl)-4-imidazolidinylidene]methyl]-1H-imidazol-1-yl]methyl]phenyl]cyclopentanecarboxylic acid], the IC50 was found to be 2.63 nM.

In turn, `CCCCc1ncc(/C=C2/C(=O)NC(=O)N2Cc2cccs2)n1Cc1ccc(C2(C(=O)O)CCCC2)cc1` [Example 26b, Z-1-[4-[[2-butyl-5-[[2,5-dioxo-3-(2-thienylmethyl)-4-imidazolidinylidene]methyl]-1H-imidazol-1-yl]methyl]phenyl]cyclopentanecarboxylic acid] showed an IC50 of 2.22 nM.

`CCCCc1ncc(C(O)C2C(=O)NC(=O)N2CCCC)n1Cc1ccc(C(=O)OC)cc1` (stereo not drawn) [Example 29, Methyl 4-[[2-butyl-5-[(3-butyl-2,5-dioxo-4-imidazolidinyl)hydroxymethyl]-1H-imidazol-1-yl]methyl]benzoate]: the IC50 is greater than 1000 nM.

Turning to `CCCCc1ncc(/C=C2\NC(=O)N(CCCC)C2=O)n1Cc1ccc(C(=O)OC)cc1` [Example 32a, Methyl Z-4-[[2-butyl-5-[(1-butyl-2,5-dioxo-4-imidazolidinylidene)methyl]-1H-imidazol-1-yl]methyl]benzoate monohydrochloride], the IC50 was found to be 178 nM.

Consider `CCCCc1ncc(/C=C2/NC(=O)N(CCCC)C2=O)n1Cc1ccc(C(=O)OC)cc1` [Example 32b, Methyl E-4-[[2-butyl-5-[(1-butyl-2,5-dioxo-4-imidazolidinylidene)methyl]-1H-imidazol-1-yl]methyl]benzoate], for which the IC50 came out at 1170 nM.

`CCCCc1ncc(/C=C2/C(=O)N(CCCC)C(=O)N2CCCC)n1Cc1ccc(C(=O)OC)cc1` [Example 33, Methyl Z-4-[[2-butyl-5-[(1,3-dibutyl-2,5-dioxo-4-imidazolidinylidene)methyl]-1 H-imidazol-1-yl]methyl]benzoate monohydrochloride]: the IC50 came to 8.49 nM.

On to `CCCCCCN1C(=O)N(CCCC)C(=O)/C1=C/c1cnc(CCCC)n1Cc1ccc(C(=O)OC)cc1` [Example 35, Methyl Z-4-[[2-butyl-5-[(1-butyl-3-hexyl-2,5-dioxo-4-imidazolidinylidene)methyl]-1H-imidazol-1-yl]methyl]benzoate monohydrochloride], for which the IC50 amounted to 40.2 nM.

In turn, `CCCCc1ncc(/C=C2/C(=O)N(CCCC)C(=O)N2Cc2ccccc2)n1Cc1ccc(C(=O)OC)cc1` [Example 36, Methyl Z-4-[[2-butyl-5-[[1-butyl-2,5-dioxo-3-(phenylmethyl)-4-imidazolidinylidene]methyl]-1H-imidazol-1-yl]methyl]benzoate monohydrochloride] came in with an IC50 of 12.4 nM.

For the compound `CCCCc1ncc(/C=C2/C(=O)N(CCCC)C(=O)N2Cc2ccc(C(=O)OC)cc2)n1Cc1ccc(C(=O)OC)cc1` [Example 37, Methyl Z-4-[[2-butyl-5-[[1-butyl-3-[[4-(methoxycarbonyl)phenyl]methyl]-2,5-dioxo-4-imidazolidinylidene]methyl]-1H-imidazol-1-yl]methyl]benzoate monohydrochloride], the IC50 turned out to be 14.3 nM.

`CCCCc1ncc(/C=C2/C(=O)N(CCCC)C(=O)N2Cc2ccc([N+](=O)[O-])cc2)n1Cc1ccc(C(=O)OC)cc1` [Example 38, mono hydrochloride]: the IC50 is 16.9 nM.
